Data set [1] concerns Serratia marcescens expressing IMP-1 (CL5741). Type of data set: cell-based. Conditions: with imipenem 1 μg/ml; 95% inhibition of bacterial growth. On the procedure:
Antibiotic Potentiation Activity: Determination of Synergistic Concentration
The bacterial strains tested included the clinical strains Escherichia coli expressing NDM-1 (CLB30005, CLB30016), Serratia marcescens expressing IMP-1 (CL5741), and Klebsiella pneumoniae expressing VIM-1 (IHMA599644). Inhibitor activity was measured in the presence and absence of imipenem in a 384-well microplate.
The clinical strains CLB30016, CL5741 and IHMA599644 were grown on trypticase soy agar containing 5% sheep's blood. The bacteria on agar plates were incubated at 35° C. with humidity overnight. The following day, individual colonies from each clinical strain were picked and resuspended in 5 ml saline to attain an OD600 of 0.14, 0.11, 0.15 and 0.13, for CLB30016, CL5741 and IHMA599644, respectively. These were further diluted 1:100 into 1.1× CAMHB and used to inoculate the test wells as described below.
Imipenem in 10 mM 3-(N-morpholino)propanesulfonic acid (MOPS, pH 7) was stored in single use aliquots at −80° C. […] On the day of the assay, 4 μl of antibiotic was added to 45 ul of bacteria followed by 1 μl of test compound and mixed by pipetting and with an orbital shaker. The concentration of antibiotic used in the assay was 1 μg/ml. Microplates were covered and incubated at 35° C. for 22 hours to 24 hours. At the end of the incubation, absorbance was determined using a spectrophotometer.

The subject of data set [2] is Pseudomonas aeruginosa PAO1 MB9798 (efflux+, IMP-1). Particulars: ratio MITC95 PA 9798/MITC95 PA 9799; imipenem at 2 μg/mL. Put shortly: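 Isogenic PAO1 pair (efflux+ MB9798, efflux− MB9799, both IMP-1) tested by microbroth MIC with fixed imipenem and/or ceftazidime, usually at CLSI breakpoint, plus fixed class A/C inhibitor against AmpC. MBL inhibitor titrated; concentration restoring susceptibility recorded and fold difference between strains taken as efflux extent.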

These results are taken from US10544130B2, “Metallo-beta-lactamase inhibitors” (priority 2015, dated 2020).

For the compound `Cn1c(N)nc2c(-c3ccc(S(=O)(=O)NC[C@@H](O)CN)c(S(N)(=O)=O)c3-c3nn[nH]n3)cccc21` [Example 308, (S)-4-(2-amino-1-methyl-1H-benzo[d]imidazol-4-yl)-N1-(3-amino-2-hydroxypropyl)-3-(2H-tetrazol-5-yl)benzene-1,2-disulfonamide], the “Serratia marcescens (IMP-1) MITC95” value in data set [1] was determined as 0.7813 µM. Moreover, the Efflux ratio in data set [2] is reported as 1.00.

For `NCCNS(=O)(=O)c1ccc(-c2cccn3ccnc23)c(-c2nn[nH]n2)c1S(N)(=O)=O` [Example 361, N1-(2-aminoethyl)-4-(imidazo[1,2-a]pyridin-8-yl)-3-(2H-tetrazol-5-yl)benzene-1,2-disulfonamide], the “Serratia marcescens (IMP-1) MITC95” value in data set [1] was found to be 0.7813 µM. Further, the Efflux ratio in data set [2] worked out at 1.00.

`N[C@@H]1C=C(c2ccc(S(=O)(=O)N[C@@H]3CCNC3)c(S(N)(=O)=O)c2-c2nn[nH]n2)CCC1` [Example 340, (S)-5′-amino-N4-((R)-pyrrolidin-3-yl)-2-(2H-tetrazol-5-yl)-2′,3′,4′,5′-tetrahydro[1,1′-biphenyl]-3,4-disulfonamide]: the “Serratia marcescens (IMP-1) MITC95” value in data set [1] came out at 1.563 µM. For the same compound, the Efflux ratio in data set [2] is 4.00.

On to `NCCCCNS(=O)(=O)c1ccc(-c2cccc3[nH]c(N)nc23)c(-c2nn[nH]n2)c1S(N)(=O)=O` [Example 258, 4-(2-amino-1H-benzo[d]imidazol-7-yl)-N1-(4-aminobutyl)-3-(2H-tetrazol-5-yl)benzene-1,2-disulfonamide], for which the “Serratia marcescens (IMP-1) MITC95” value in data set [1] turned out to be 0.7813 µM. In addition, the Efflux ratio in data set [2] came to 1.00.

With `Nc1nc2c(-c3ccc(S(=O)(=O)NC[C@]4(N)CCNC4)c(S(N)(=O)=O)c3-c3nn[nH]n3)cccc2[nH]1` [Example 250, (S)-4-(2-amino-1H-benzo[d]imidazol-4-yl)-N1-((3-aminopyrrolidin-3-yl)methyl)-3-(2H-tetrazol-5-yl)benzene-1,2-disulfonamide], the “Serratia marcescens (IMP-1) MITC95” value in data set [1] was 0.7813 µM. Moreover, in data set [2], the Efflux ratio came to 1.00.

Turning to `NCC(CN)NS(=O)(=O)c1ccc(-c2cccn3ccnc23)c(-c2nn[nH]n2)c1S(N)(=O)=O` [Example 386, N1-(1,3-diaminopropan-2-yl)-4-(imidazo[1,2-a]pyridin-8-yl)-3-(2H-tetrazol-5-yl) benzene-1,2-disulfonamide], the “Serratia marcescens (IMP-1) MITC95” value in data set [1] worked out at 1.563 µM. The Efflux ratio in data set [2] turned out to be 1.00.

As to `Nc1nc2c(-c3ccc(S(=O)(=O)NC[C@H]4CCNC4)c(S(N)(=O)=O)c3-c3nn[nH]n3)cccc2[nH]1` [Example 259, (S)-4-(2-amino-1H-benzo[d]imidazol-4-yl)-N1-(pyrrolidin-3-ylmethyl)-3-(2H-tetrazol-5-yl)benzene-1,2-disulfonamide], in data set [1], the “Serratia marcescens (IMP-1) MITC95” value worked out at 0.7813 µM. In data set [2], the Efflux ratio turned out to be 1.00.

`C[N+]1(C)CC(NS(=O)(=O)c2ccc(-c3cccc4[nH]c(N)nc34)c(-c3nn[nH]n3)c2S(N)(=O)=O)C1.O=C([O-])O` [Example 245, 3-(4-(2-Amino-1H-benzo[d]imidazol-4-yl)-2-sulfamoyl-3-(2H-tetrazol-5-yl)phenylsulfonamido)-1,1-dimethylazetidin-1-ium hydrogencarbonate]: in data set [1], the “Serratia marcescens (IMP-1) MITC95” value was found to be 1.563 µM. Moreover, in data set [2], the Efflux ratio is 1.00.

Consider `NC[C@@H](N)CNS(=O)(=O)c1ccc(-c2cnc3cc[nH]c3c2)c(-c2nn[nH]n2)c1S(N)(=O)=O` [Example 378, (R)-N 1-(2,3-diaminopropyl)-4-(1H-pyrrolo[3,2-b]pyridin-6-yl)-3-(2H-tetrazol-5-yl)benzene-1,2-disulfonamide], for which, in data set [1], the “Serratia marcescens (IMP-1) MITC95” value came out at 1.563 µM. Besides, in data set [2], the Efflux ratio was 2.00.

In the case of `N[C@H]1C=C(c2ccc(S(=O)(=O)N[C@@H]3CCNC3)c(S(N)(=O)=O)c2-c2nn[nH]n2)CCC1` [Example 339, (R)-5′-amino-N4-((R)-pyrrolidin-3-yl)-2-(2H-tetrazol-5-yl)-2′,3′,4′,5′-tetrahydro-[1,1′-biphenyl]-3,4-disulfonamide], the “Serratia marcescens (IMP-1) MITC95” value in data set [1] was 1.563 µM. Also, the Efflux ratio in data set [2] is on record as 4.00.
